From article PMC13242511, “Disrupting Notch signalling by a small molecule inhibiting dihydroorotate dehydrogenase activity” (Scientific Reports, 2026)
Where two headings read alike, the source gives them in different places.

Experiments:
[1] = tested on: Notch signalling; experiment: Notch reporter assay (12xCSL firefly luciferase / renilla luciferase, HEK293T Notch1ΔE reporter cell line clone #A1-11); type: cell-based; parameters: AUC Notch: scale not given here; conditions: for Bottom (Emax): Emax indicated independent from assay constraints, in % (unit assumed); for IC50 / activity at 10 µM / activity at 25 µM / activity: Homo sapiens, HEK-293T; for AUC Notch: area under the 14-point dose-response curve, replicates averaged; for activity: 1,25µM
Outline: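 Compounds at two-fold concentration in 10 µl medium were brought to one-fold by adding 10 µl holding 4000 Notch reporter cells (clone #A1-11) per well of a 384-well plate. After 24 h, Promega dual-GLO firefly and renilla luciferase were read on a SpectraMaxi3. Dose-response curves were fitted with a log(inhibitor) vs. response variable-slope model.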

[2] = molecular target: γ-secretase complex (Homo sapiens, UniProt P49768); experiment: APP-C99 counter assay (GSI reporter assay); type: cell-based; parameters: AUC APP: scale not given here; conditions: for Hill-slope / curve fit information: 14p APP assay DR, bottom constrained to Emax of positive control LY-411575; for AUC APP: area under the 14-point dose-response curve, replicates averaged; for remaining activity at 10 µM / remaining activity at 25 µM / remaining activity at […]: 24 h, APP-C99 counter assay, read-out: 3p-DR in % of DMSO counter; for remaining activity at […]: 1,25µM
Outline: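 Cells transfected with APP-C99 firefly luciferase reporter plus renilla normalization plasmid, seeded 24 h later onto compound plates and cultured 24 h. Dual luciferase read in triplicate per concentration; IC50 from variable-slope log(inhibitor) fit, with AUC also calculated from dose–response curves.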

[3] = 14-point dose-response, Fig. 4, read-out: approximated IC50, Notch reporter assay
[4] = 14p Notch assay DR, bottom constrained to Emax of positive control DAPT, read-out: approximated IC50
[5] = 14p Notch assay DR, log10 value, bottom constrained to Emax of positive control DAPT, read-out: approximated LogIC50 (converted)
[6] = overview in comparison to compound C, Supplemental Fig. 9
[7] = 10 µM, primary screen, 24 h, unit from Fig. 2 legend, read-out: Primary screen at 10 µM (Notch reporter signal)
[8] = 10 µM, three-dose confirmation screen, unit from Fig. 2 legend, read-out: Hit confirmation at 10 µM (Notch reporter signal)
[9] = 10µM, 3-point DR confirmation screen, Notch reporter assay, read-out: inhibitor ratio in % of DMSO in 3 point DR
[10] = 10 µM, sheet conf vs counter 10 µM, same values as 3-point DR confirmation screen, read-out: Confirmation screen
[11] = 25µM, 3-point DR confirmation screen, Notch reporter assay, read-out: inhibitor ratio in % of DMSO in 3 point DR
[12] = 25 µM, Notch reporter 3-point dose-confirmation assay, sheet "conf vs counter 25 µM", read-out: Confirmation screen
[13] = 3-point DR confirmation screen, Notch reporter assay, read-out: inhibitor ratio in % of DMSO in 3 point DR

| SMILES | Bottom (Emax) ([1]; 14p Notch assay DR) | IC50 [1, 4] [µM] | IC50 [1, 5] [µM] | AUC Notch [1] | Hill-slope [2] | AUC APP [2] | also measured |
| --- | --- | --- | --- | --- | --- | --- | --- |
| Cc1ccccc1CN1CCC2(CC1)OCCc1c2[nH]c2ccc(F)cc12 [CBK040334] | ~ 28,93 | 8.9 | 7.94 | 607.0 | 0.00509 | 704.0 | IC50 [1, 3]: > 5 µM; curve fit information [2]: IC50 indeterminate |
| CC(C)[C@H](O)C(=O)N[C@@H](C)C(=O)N[C@@H]1C(=O)N(C)CCc2ccccc21 [LY-450139, Semagacestat, reference compound] | – | – | – | – | – | – | reporter signal in % of DMSO ([1]; 10 µM, inhibitor controls, Supplemental Fig. 2A): 52%; Notch assay [1, 6]: active, potency n.d.; APP assay [2, 6]: active, potency n.d. |
| CCOC(=O)c1c(NC(=O)NCc2cccnc2)sc2c1CCC2 [CBK307585] | 71.6 | – | – | 338.0 | -0.6 | 444.5 | IC50 [1, 3]: 6.6 µM |
| Oc1cc(-c2ccccc2)nn1-c1nc2ccccc2s1 [CBK016481] | 98.5 | – | – | 626.0 | 0.00215 | 668.5 | approximated IC50, Notch reporter assay ([1]; 14-point dose-response, Fig. 4): Indeterminate |
| O=C(Nc1nnc(-c2ccc3c(c2)OCCO3)o1)c1ccccc1F [CBK287405] | 15.0 | 3 | 3.16 | 288.0 | – | 502.9 | activity at 10 µM [1, 7]: 36.4%; activity at 10 µM [1, 8]: 44%; activity at 10 µM [1, 9]: 44%; activity at 10 µM [1, 10]: 44%; activity at 25 µM [1, 11]: 37.6%; activity at 25 µM [1, 12]: 37.6%; activity [1, 13]: 85.1%; curve fit information [2]: IC50 indeterminate; remaining activity at 10 µM [2]: 137%; remaining activity at 25 µM [2]: 153%; remaining activity at […] [2]: 124% |
| COc1cc(Nc2nc(-c3cccc(NC(C)=O)c3)cn3ccnc23)cc(OC)c1OC [CBK038093] | 21.1 | 5.6 | 5.01 | 304.0 | 0.0389 | 493.6 | activity at 10 µM [1, 7]: 46.2%; activity at 10 µM [1, 8]: 56.1%; activity at 10 µM [1, 9]: 56.1%; activity at 10 µM [1, 10]: 56.1%; activity at 25 µM [1, 11]: 41.5%; activity at 25 µM [1, 12]: 41.5%; activity [1, 13]: 96.6%; remaining activity at 10 µM [2]: 180%; remaining activity at 25 µM [2]: 242%; remaining activity at […] [2]: 132% |
| Cc1c(C(C)NC(=O)c2[nH]c3ccccc3c2Cl)cnn1C (stereo not drawn) [CBK246640] | 91.1 | – | – | 612.0 | 0.0225 | 737.0 | approximated IC50, Notch reporter assay ([1]; 14-point dose-response, Fig. 4): Indeterminate |
| COc1ccccc1-c1cn2ccnc2c(Nc2cc(OC)c(OC)c(OC)c2)n1 [CBK066148] | 58.8 | 27 | 25.1 | 336.0 | 0.0659 | 523.0 | – |
| COC(=O)c1cccc(N2C(=O)c3ccc(Oc4cccc(NC(C)=O)c4)cc3C2=O)c1 [CBK033640] | 91.5 | – | – | 399.0 | 0.0705 | 553.6 | – |
| COc1cccc(Nc2nc(-c3cccnc3)cn3ccnc23)c1 [CBK103068] | 69.8 | > 40 | > 40 | 335.0 | 0.0551 | 517.0 | – |
| Cc1cc(O)n(-c2nc3ccccc3s2)n1 [CBK007453] | 95.0 | > 40 | > 40 | 628.0 | -0.00928 | 674.5 | IC50 [1, 3]: > 40 µM |
| CC(=O)Oc1cccc(N2C(=O)c3ccc(Oc4cccc(N)c4)cc3C2=O)c1 [CBK261099] | 18.6 | 1.8 | 1.58 | 282.0 | -2.8 | 428.7 | activity at 10 µM [1, 7]: 31.5%; activity at 10 µM [1, 8]: 28.1%; activity at 10 µM [1, 9]: 28.1%; activity at 10 µM [1, 10]: 28.1%; activity at 25 µM [1, 11]: 20.3%; activity at 25 µM [1, 12]: 20.3%; activity [1, 13]: 87.9%; remaining activity at 10 µM [2]: 80.5%; remaining activity at 25 µM [2]: 59.7%; remaining activity at […] [2]: 124% |
| Fc1ccc2[nH]c3c(c2c1)CCOC31CCN(Cc2ccccc2-c2ccccc2)CC1 [CBK039913] | 44.4 | 1.2 | 1.26 | 588.0 | 0.0284 | 726.2 | – |
| O=C1NC(c2cccnc2)Nc2sc3c(c21)CCCC3 (stereo not drawn) [CBK072377] | 89.1 | – | – | 364.0 | 0.0091 | 497.7 | approximated IC50, Notch reporter assay ([1]; 14-point dose-response, Fig. 4): Indeterminate |
| COc1cc(-c2cn3ccnc3c(Nc3ccccc3)n2)cc(OC)c1OC [CBK066200] | 65.6 | 36 | 39.8 | 329.0 | -8.75e-10 | 496.5 | curve fit information [2]: IC50 indeterminate |
| COc1ccc2[nH]c3c(c2c1)CCOC31CCN(Cc2ccccc2-c2ccccc2)CC1 [CBK040114] | 45.9 | 1.3 | 1.26 | 576.0 | 0.0153 | 713.8 | IC50 [1, 3]: 1.4 µM |
| CC1CCc2c(sc3ncnc(NCCCN4CCCCCC4=O)c23)C1 (stereo not drawn) [CBK305947] | 34.4 | 7.1 | 7.94 | 316.0 | 0.121 | 578.1 | activity at 10 µM [1, 7]: 41.4%; activity at 10 µM [1, 8]: 66.5%; activity at 10 µM [1, 9]: 66.5%; activity at 10 µM [1, 10]: 66.5%; activity at 25 µM [1, 11]: 46.7%; activity at 25 µM [1, 12]: 46.7%; activity [1, 13]: 107%; remaining activity at 10 µM [2]: 118%; remaining activity at 25 µM [2]: 144%; remaining activity at […] [2]: 96.6% |
| COc1ccc(-c2cn3ccnc3c(Nc3ccccc3)n2)cc1 [CBK066257] | 91.1 | – | – | 403.0 | -3.32e-11 | 515.8 | curve fit information [2]: IC50 indeterminate |
| COc1cc(Nc2nc(-c3cccc(Cl)c3)cn3ccnc23)cc(OC)c1OC [CBK066271] | 87.7 | – | – | 348.0 | -16.9 | 485.9 | – |
